The target of one test is T1, HIV-Integrase (Human immunodeficiency virus type 1 group M subtype B, UniProt P12497).
T1 construct: Recombinant integrase (0.26 ng) was incubated with the beads
Description: HIV-Integrase binding assay (competition with [3H]-compound I, SPA). The conditions noted are these: competitive binding vs [3H]-compound I to purified integrase; Ki by Cheng and Prusoff; read-out: in vitro binding. How it is done: HIV-Integrase Inhibition Activity. To evaluate in-vitro activity against HIV-integrase, 5 pmole of biotin labeled substrate DNA was bound to 100 μg of Streptavidin coated PVT SPA beads (Amersham Pharmacia Biotech). Recombinant integrase (0.26 ng) was incubated with the beads for 90 min at 37° C. Unbound enzyme was removed by washing the complex followed by addition of inhibitors and 0.1 fmol of P33 labeled target DNA. The reaction was stopped by adding EDTA to a final concentration of 10 mM. Samples were counted in TopCountNXT (Packard) and the CPM was used as a measure of integration. The reaction condition was as described in A. Engelman and R. Craigie, J. Virol. 69, 5908-5911 (1995). The sequences of substrate and target DNA were described in Nucleic Acid Research 22,1121-1122 (1994).
HIV-Integrase binding assay. In this assay competitive binding experiments with test compounds and a radiolabeled integrase inhibitor (compound I) are performed against purified integrase. SPA bead/DNA/enzyme complexes were prepared as for the integrase inhibition assay except, to each well, 0.69 μl of integrase enzyme ([…]) was used per 2 μl of LTR DNA-attached scintillation proximity beads (stock 50 mg/ml). Binding reactions were carried out in 96-well white polystyrene assay plates (Corning, #3600). The following was added sequentially to each well: 20 μl of water or 20 μl of human serum (Cellgro Cat# 35-060-CL), 5 μl of serially diluted compound (in 50% DMSO/50% integrase SPA buffer), 5 μl of [^3H]-compound I (6,000 cpm/μl in SPA buffer) and 20 μl of bead/DNA/enzyme complex. The plates were shaken for 2 hours and then allowed to sit at room temperature without shaking overnight. The [^3H]-compound I binding was measured using a Topcount scintillation counter. Cheng and Prusoff equations were used to convert the inhibition of compound 1 binding into the corresponding Ki value. Activity equal to A refers to a compound having Ki=0.001 to 0.003 μM while B and C denote compounds having Ki=0.003 to 0.05 μM and Ki≧0.050 μM respectively.

The test system of test [1] is recombinant NL-Rluc virus. Description: Inhibition of HIV replication (NL-RLuc virus, Renilla luciferase). Format: cell-based. The conditions noted are these: Human immunodeficiency virus 1, read-out: antiviral actitively.

The record followed here is patent US8039458B2, “HIV integrase inhibitors” (priority 2005, dated 2011).

As to `CNC(=O)c1cc(F)ccc1CNC(=O)c1nc2n(c(=O)c1O)CCOCC21CCOCC1` [Example 33, N-((4-fluoro-2-((methylamino)carbonyl)phenyl)methyl)-3′-hydroxy-4′-oxo-2,3,5,6,6′,7′-hexahydro-4′H-spiro[pyran-4,10′-pyrimido[1,2-d][1,4]oxazepine]-2′-carboxamide], the Ki at HIV-Integrase fell in the range of 3 to 50 nM. In addition, the EC50 in test [1] is 1 to 10 nM.
Taken in the same sequence, the figures for `O=C(NCc1ccc(F)cc1-n1cnc(CO)n1)c1nc2n(c(=O)c1O)CCOCC21CCOCC1` [Example 25, N-((4-fluoro-2-(3-(hydroxymethyl)-1H-1,2,4-triazol-1-yl)phenyl)methyl)-3′-hydroxy-4′-oxo-2,3,5,6,6′,7′-hexahydro-4′H-spiro[pyran-4,10′-pyrimido[1,2-d][1,4]oxazepine]-2′-carboxamide] were 3 to 50 nM and above 50 nM.
The matching figures for `CCc1ncnn1-c1cc(F)ccc1CNC(=O)c1nc2n(c(=O)c1O)CCOCC21CCCC1` [Example 22, N-((2-(5-ethyl-1H-1,2,4-triazol-1-yl)-4-fluorophenyl)methyl)-3′-hydroxy-4′-oxo-6′,7′-dihydro-4′H-spiro[cyclopentane-1,10′-pyrimido[1,2-d][1,4]oxazepine]-2′-carboxamide]: 3 to 50 nM and 1 to 10 nM.
The matching figures for `Cc1nc(C)n(-c2cc(F)ccc2CNC(=O)c2nc3n(c(=O)c2O)CCOCC32CCCC2)n1` [Example 24, N-((2-(3,5-dimethyl-1H-1,2,4-triazol-1-yl)-4-fluorophenyl)methyl)-3′-hydroxy-4′-oxo-6′,7′-dihydro-4′H-spiro[cyclopentane-1,10′-pyrimido[1,2-d][1,4]oxazepine]-2′-carboxamide]: 3 to 50 nM and 1 to 10 nM.
In the case of `O=C(NCc1ccc(F)cc1-n1cncn1)c1nc2n(c(=O)c1O)CCOCC21CCOCC1` [Example 34, N-((4-fluoro-2-(1H-1,2,4-triazol-1-yl)phenyl)methyl)-3′-hydroxy-4′-oxo-2,3,5,6,6′,7′-hexahydro-4′H-spiro[pyran-4,10′-pyrimido[1,2-d][1,4]oxazepine]-2′-carboxamide], at HIV-Integrase, the Ki was 1 to 3 nM. In addition, in test [1], the EC50 is 1 to 10 nM.
`O=C(NCc1ccc(F)cc1)c1nc2n(c(=O)c1O)CCOCC21CCC1` [Example 7, N-((4-fluorophenyl)methyl)-3′-hydroxy-4′-oxo-6′,7′-dihydro-4′H-spiro[cyclobutane-1,10′-pyrimido[1,2-d][1,4]oxazepine]-2′-carboxamide]: on HIV-Integrase, the Ki was in the range of 1 to 3 nM. The EC50 in test [1] was 10 to 50 nM.
Taken in the same sequence, the figures for `CC1(C)COCCn2c1nc(C(=O)NCc1ccc(F)cc1-n1cncn1)c(O)c2=O` [Example 2, N-((4-Fluoro-2-(1H-1,2,4-triazol-1-yl)phenyl)methyl)-3-hydroxy-10,10-dimethyl-4-oxo-6,7,9,10-tetrahydro-4H-pyrimido[1,2-d][1,4]oxazepine-2-carboxamide] were 3 to 50 nM and 1 to 10 nM.
The matching figures for `Cc1ncnn1-c1cc(F)ccc1CNC(=O)c1nc2n(c(=O)c1O)CCOCC21CCC1` [Example 10, N-((4-fluoro-2-(5-methyl-1H-1,2,4-triazol-1-yl)phenyl)methyl)-3′-hydroxy-4′-oxo-6′,7′-dihydro-4′H-spiro[cyclobutane-1,10′-pyrimido[1,2-d][1,4]oxazepine]-2′-carboxamide]: 1 to 3 nM and 1 to 10 nM.
With `Cc1n[nH]c(-c2cc(F)ccc2CNC(=O)c2nc3n(c(=O)c2O)CCOCC32CCOCC2)n1` [Example 42, N-((4-fluoro-2-(3-methyl-1H-1,2,4-triazol-5-yl)phenyl)methyl)-3′-hydroxy-4′-oxo-2,3,5,6,6′,7′-hexahydro-4′H-spiro[pyran-4,10′-pyrimido[1,2-d][1,4]oxazepine]-2′-carboxamide], the Ki on HIV-Integrase fell in the range of 1 to 3 nM. Moreover, the EC50 in test [1] lay in the range of 1 to 10 nM.
